Reference: patent EP4603105A1, “PHARMACEUTICAL COMPOSITION CONTAINING CYCLIC COMPOUND HAVING SELECTIVE KRAS INHIBITORY EFFECT AGAINST HRAS AND NRAS” (CHUGAI SEIYAKU KABUSHIKI KAISHA, priority 2022, dated 2024)
Where two headings read alike, the source gives them in different places. *1 amine or outer side, *2 acyl side, *3 side chain or, on linkers, in order; H or OH if unused. Where a SMILES comes first, the peptide text is derived from it. Bridges are numbered along the chain shown (N, C = ends). [ ]: non-standard residue; d: D form. The star is where a group is joined. hPhe(3,5-F2-4-CF3) = N[C@@H](CCc1cc(F)c(C(F)(F)F)c(F)c1)C(=O)O; hPhe(3-Cl-4-CF3) = N[C@@H](CCc1ccc(C(F)(F)F)c(Cl)c1)C(=O)O; NPrPhe(4-CF3) = CCCN[C@@H](Cc1ccc(C(F)(F)F)cc1)C(=O)O; NMeGly(cPent) = CN[C@H](C(=O)O)C1CCCC1; X3 = CCC[C@](C)(N[*:1])C(=O)[*:2]; NMeD = CN[C@@H](CC(=O)O)C(=O)O; NMeL = CN[C@@H](CC(C)C)C(=O)O; Morpholide = C1CN(*)CCO1; NMeA = CN[C@@H](C)C(=O)O; Ac5c = NC1(C(=O)O)CCCC1; Aze = O=C(O)[C@@H]1CCN1; Sar = CNCC(=O)O

Tests used:
[1] = tested on: human lung cancer strain NCI-H441; assay type: cell-based
Procedure, shortened: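 Step one: dispense the test compound in serial DMSO dilutions. Step three: add the reagent and measure […].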

[2] = target: GDP-bound NRAS wild-type protein (Homo sapiens, UniProt P01111); assay: Binding to NRAS by surface plasmon resonance (SPR), KD and KD ratio to KRAS
Sequence of GDP-bound NRAS wild-type protein (P01111 whole entry): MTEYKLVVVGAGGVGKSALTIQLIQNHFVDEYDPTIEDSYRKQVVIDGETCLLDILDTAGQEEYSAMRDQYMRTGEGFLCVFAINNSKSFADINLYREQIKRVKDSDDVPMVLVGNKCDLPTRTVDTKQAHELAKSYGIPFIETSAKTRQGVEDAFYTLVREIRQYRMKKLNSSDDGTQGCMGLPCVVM
Procedure, shortened: (§1)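 Captured GDP-RAS (~100–300 RU) was exposed to increasing compound concentrations, 75 s per step, in running buffer with 10 µM GDP, 10 mM MgCl2 and 4% DMSO at pH 7.4.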

HRAS wild-type protein = HRAS wild-type protein (Homo sapiens, UniProt P01112); assay: Binding to HRAS by surface plasmon resonance (SPR), KD and KD ratio to KRAS
Sequence of HRAS wild-type protein (P01112 whole entry): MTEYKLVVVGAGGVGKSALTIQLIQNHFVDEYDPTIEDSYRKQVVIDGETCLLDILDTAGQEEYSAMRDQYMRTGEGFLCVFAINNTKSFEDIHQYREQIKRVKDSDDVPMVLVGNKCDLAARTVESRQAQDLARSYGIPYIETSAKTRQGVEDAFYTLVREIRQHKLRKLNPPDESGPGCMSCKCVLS
Procedure, shortened: as §1

[3] = NCI-H441 cells, 4 days, CellTiter-Glo, read-out: NCl-H441 IC50
[4] = ratio of KD for GDP-bound NRAS wild-type protein to KD for KRAS
[5] = ratio of KD for HRAS wild-type protein to KD for KRAS
[6] = ratio of the KD value with respect to GDP-bound NRAS wild-type protein to the KD value with respect to KRAS
[7] = ratio of the KD value with respect to HRAS wild-type protein to the KD value with respect to KRAS

Row | IC50 [1] [nM] | SMILES | IC50 [1, 3] [nM] | NRAS /KRAS [2, 4] | HRAS /KRAS (HRAS wild-type protein; [5]) | NRAS /KRAS [2, 6] | HRAS /KRAS (HRAS wild-type protein; [7])
1 | – | CCOC[C@H]1C(=O)N[C@@H]([C@@H](C)CC)C(=O)N(C)CC(=O)N(C)[C@H]2C/C=C\CCN(C2=O)[C@@H](Cc2ccc(C)cc2F)C(=O)N(C)CC(=O)N[C@@H](CCc2ccc(C(F)(F)F)c(OC)c2)C(=O)N2C[C@@H](C)C[C@H]2C(=O)NC2(CC(C)(C)C2)C(=O)N(C)[C@@H](C2CCCC2)C(=O)N(C)[C@H](C(=O)N(C)CC)CC(=O)N1C [PP2697] | 42.8 | A (a compound having 10 or more and less than 20 is denoted as A) | A (a compound having 10 or more and less than 20 is denoted as A) | – | –
2 | 133 | CCC[C@H]1C(=O)N[C@@H]([C@@H](C)CC)C(=O)N2CCC[C@H]2C(=O)N(C)[C@H]2C/C=C\CCN(C2=O)[C@@H](CC2CCCCC2)C(=O)N(C)CC(=O)N[C@@H](CCc2ccc(C(F)(F)F)c(OC)c2)C(=O)N2C[C@H](OCC)C[C@H]2C(=O)N(C)C2(CCC2)C(=O)N(C)[C@@H](C(CC)CC)C(=O)N(C)[C@H](C(=O)N(C)C)CC(=O)N1C [PP2341] | – | – | – | A (a compound having 10 or more and less than 20 is denoted as A) | A (a compound having 10 or more and less than 20 is denoted as A)
3 | 153 | CCCN1C(=O)CN(C)C(=O)CN(C)C(=O)[C@H]([C@@H](C)CC)NC(=O)[C@H](CC(C)C)N(C)C(=O)C[C@@H](C(=O)N2CCOCC2)N(C)C(=O)[C@H](C2CCCC2)N(C)C(=O)[C@](C)(CCC)NC(=O)[C@@H]2CCCN2C(=O)[C@H](CCc2cc(F)c(C(F)(F)F)c(F)c2)NC(=O)CN(C)C(=O)[C@@H]1Cc1ccc(C(F)(F)F)cc1 [PP0758] ([NMeL]I[Sar][Sar][NPrPhe(4-CF3)][Sar][hPhe(3,5-F2-4-CF3)]P[X3][NMeGly(cPent)][NMeD]-Morpholide; lactam N-11) | – | – | – | B (a compound having 3 or more and less than 10 is denoted as B) | C (A compound having a KD ratio of 0.1 or more and less than 3 is denoted as C)
4 | 9.9 | CCCN1C(=O)[C@@H]2CCN2C(=O)[C@H](C)N(C)C(=O)[C@H]([C@@H](C)CC)NC(=O)[C@H](CC(C)C)NC(=O)C[C@@H](C(=O)N2CCOCC2)N(C)C(=O)[C@H](C2CCCC2)N(C)C(=O)C2(CCCC2)NC(=O)[C@@H]2CCCN2C(=O)[C@H](CCc2ccc(C(F)(F)F)c(Cl)c2)NC(=O)CN(C)C(=O)[C@@H]1Cc1ccc(C(F)(F)F)cc1 [PP0154] (LI[NMeA][Aze][NPrPhe(4-CF3)][Sar][hPhe(3-Cl-4-CF3)]P[Ac5c][NMeGly(cPent)][NMeD]-Morpholide; lactam N-11) | – | C (A compound having a KD ratio of 0.1 or more and less than 3 is denoted as C) | B (a compound having 3 or more and less than 10 is denoted as B) | – | –
5 | – | CCC[C@H]1C(=O)N[C@@H]([C@@H](C)CC)C(=O)N(C)CC(=O)N(C)[C@H]2C/C=C\CCN(C2=O)[C@@H](Cc2ccc(C(F)(F)F)cc2)C(=O)N(C)CC(=O)N[C@@H](CCc2cc(Cl)c3c(ccn3C)c2)C(=O)N2C[C@H](OCC)C[C@H]2C(=O)NC2(CC(C)(C)C2)C(=O)N(C)[C@@H](C(CC)CC)C(=O)N(C)[C@H](C(=O)N(C)C)CC(=O)N1C [PP2896] | 79.3 | A (a compound having 10 or more and less than 20 is denoted as A) | A (a compound having 10 or more and less than 20 is denoted as A) | – | –
6 | 58.7 | CCO[C@@H]1C[C@H]2C(=O)NC3(CCC3)C(=O)N(C)[C@@H](C3CCCC3)C(=O)N(C)[C@H](C(=O)N(C)C)CC(=O)N(C)[C@@H](CC)C(=O)N[C@@H]([C@@H](C)CC)C(=O)N(CC)CC(=O)N(C)[C@H]3C/C=C\CCN(C3=O)[C@@H](Cc3ccc(C(F)(F)F)cc3)C(=O)N(C)CC(=O)N[C@@H](CCc3cc(F)c(C(F)(F)F)c(F)c3)C(=O)N2C1 [PP1052] | – | A (a compound having 10 or more and less than 20 is denoted as A) | A (a compound having 10 or more and less than 20 is denoted as A) | – | –
